From PMC6254971, “Antimalarial Activity of Ultra-Short Peptides” (Molecules, 2009)
pIC50: −log10 of the molar value. Like-named read-outs stand apart in the source and are kept apart here. Non-standard residues stand in square brackets, D forms with d. Residues, ends and D or L forms follow the SMILES beside them. No end group written: not given here. *: point of attachment. Orn = NCCC[C@H](N)C(=O)O; Cbz = O=C(OCc1ccccc1)*; CH2F = FC*

Columns and labels:
P. falciparum = test system: P. falciparum; set-up: method as in 6 sources, ref 23 = [23]; PMID 16723585; doi:10.1128/AAC.00022-06; 23. Parikh S. Liu J. Sijwali P. Gut J. Goldberg D.E. Rosenthal P.J. Antimalarial effects of human immunodeficiency virus type 1 protease inhibitors differ from those of the aspartic protease inhibitor ||| ref 24 = [24]; PMID 11172676; doi:10.2174/0929867013373787; 24. Meinke P.T. Liberator P. Histone deacetylase: A target for antiproliferative and antiprotozoal agents Current Med. Chem. 2001 8 211 235 10.2174/0929867013373787 11172676 ||| ref 12 = [12]; PMID 16643062; doi:10.1021/np050549h; 12. Thongtan J. Saenboonrueng J. Rachtawee P. Isaka M. An antimalarial tetrapeptide from the entomopathogenic fungus Hirsutella sp. BCC 1528 J. Nat. Prod. 2006 69 713 714 10.1021/np050549h 16643062 ||| ref 25 = [25]; PMID 18305429; doi:10.3390/molecules13020432; 25. Sathe M. Thavaselvam D. Srivastava A.K. Kaushik M.P. Synthesis and antimalarial evaluation of cyclic β-amino acid-containing dipeptides Molecules 2008 13 432 443 10.3390/molecules13020432 18305429 ||| ref 30, 31 = [30]; PMID 1939639; doi:10.1172/JCI115456; 30. Rosenthal P.J. Wollish W.S. Palmer J.T. Rasnick D. Antimalarial effects of peptide inhibitors of a Plasmodium falciparum cysteine proteinase J. Clin. Invest. 1991 88 1467 1472 10.1172/JCI115456 19 || [31]; PMID 8807047; doi:10.1128/aac.40.7.1600; 31. Rosenthal P.J. Olson J.E. Lee G.K. Palmer J.T. Klaus J.L. Rasnick D. Antimalarial effects of vinyl sulfone cysteine proteinase inhibitors Antimicrob. Agents Chemother. 1996 40 1600 1603 8807047 10 ||| ...; settings: cited from earlier work; for IC50 in vitro: maturation schizonts and total growth inhibition assays; for pIC50: read-out: IC50 against P. falciparum
P. berghei = test system: P. berghei; set-up: method as in 2 sources, ref 29 = [29]; PMID 8917558; doi:10.1073/pnas.93.23.13143; 29. Darkin-Rattray S.J. Gurnett A.M. Myers R.W. Dulski P.M. Crumley T.M. Allocco J.J. Cannova C. Meinke P.T. Colletti S.L. Bednarek M.A. Singh S.B. Goetz M.A. Dombrowski A.W. Polishook J.D. Schmatz D. ||| ref 25 = [25]; PMID 18305429; doi:10.3390/molecules13020432; 25. Sathe M. Thavaselvam D. Srivastava A.K. Kaushik M.P. Synthesis and antimalarial evaluation of cyclic β-amino acid-containing dipeptides Molecules 2008 13 432 443 10.3390/molecules13020432 18305429; settings: cited from earlier work
[1] = test system: Plasmodium berghei schizonts (ANKA 2.34), chloroquine-sensitive; experiment: microbe, parasite or virus in culture; settings: for Chemosuppression of P. berghei schizont cultures (%): compound 200 μM, schizonts counted in 2,000 erythrocytes
Protocol: Mature P. berghei schizonts were prepared as described by Thathy and Menard. […] Parasites were incubated for 16 h at 37 °C as described. Chloroquine (C6628 Sigma Chloroquine diphosphate salt solid, ≥98% purity) was used as positive control. Samples of 0.5 mL of each culture were taken to prepare smears and used to count numbers of schizonts in 2,000 erythrocytes. The IC50 values of each compound were determined using concentrations of 5, 50, 100, and 200 µM, according to Khalid et al., and by extrapolation from the concentration response curve. The IC50 value represents the drug concentration producing a 50% reduction in the number of P. berghei schizonts (compared to drug-free control cultures).

[2] = test system: trophozoite cysteine proteinase (TCP); set-up: method as in PMID 1939639, PMID 8807047; settings: cited from earlier work
malarial infected mice = settings: four days of subcutaneous administration; cited from earlier work
[3] = 16 h at 37 °C, duplicate, averaged
[4] = read-out: IC50 (50% reduction in the number of P. berghei schizonts), 16 h at 37 °C, concentrations 5, 50, 100, 200 µM, extrapolation from concentration response curve, duplicate, averaged

In the case of “2-(2-tert-butoxycarbonylamino-3-phenyl-propionylamino)-cyclooctanecarboxylic acid methyl ester”, the IC50 in vitro (P. falciparum) is listed as 3.64 µg/mL and the “in vivo antimalarial activity against P. berghei” value (P. berghei) is listed as “active in vivo”.

In the case of “2-(2-tert-butoxycarbonylamino-4-methylpentanoyl-amino)-cyclooctanecarboxylic acid methyl ester”, the IC50 in vitro (P. falciparum) is given as 3.87 µg/mL.

For `CCN(CC)CCCC(C)Nc1ccnc2cc(Cl)ccc12` (stereo not shown) [Chloroquine], the pIC50 ([1]; Plasmodium berghei, 16 h, read-out: IC50 (50% reduction in the number of P. berghei schizonts)) was 7.22 and the “Chemosuppression of P. berghei schizont cultures (%)” value [1, 3] was 100%.

Molecule `CC[C@H](C)[C@H](N)C(=O)N[C@@H](CCCCN)C(=O)N[C@@H](Cc1ccccc1)C(=O)N[C@@H](CCCN)C(=O)O` [Compound 1, Ile-Lys-Phe-Orn] (H-IKF[Orn]-OH) has a pIC50 ([1]; 16 h) of 4.49.

`CC(C)[C@H](N)C(=O)N[C@@H](CCCCN)C(=O)N[C@@H](Cc1ccccc1)C(=O)N[C@@H](CCCN)C(=O)O` [Compound 2, Val-Lys-Phe-Orn] (H-VKF[Orn]-OH) showed a pIC50 ([1]; 16 h) of 5.00.

Molecule `NCCCC[C@H](N)C(=O)N[C@@H](CCCN)C(=O)N[C@@H](Cc1ccccc1)C(=O)N[C@@H](CCCN)C(=O)O` [Compound 3, Lys-Orn-Phe-Orn] (H-K[Orn]F[Orn]-OH) has a pIC50 ([1]; 16 h) of 4.87.

For `NCCCC[C@H](N)C(=O)N[C@@H](Cc1ccccc1)C(=O)N[C@@H](Cc1ccccc1)C(=O)N[C@@H](CCCN)C(=O)O` [Compound 5, Lys-Phe-Phe-Orn] (H-KFF[Orn]-OH), the pIC50 ([1]; 16 h) was 5.59.

In the case of `CC(C)[C@H](NC(=O)[C@H](CCCCN)NC(=O)[C@H](Cc1ccccc1)NC(=O)[C@@H](N)CCCN)C(=O)O` [Compound 6, Orn-Phe-Lys-Val] (H-[Orn]FKV-OH; N-terminus assumed), the pIC50 ([1]; 16 h) was under 3.70, the “Chemosuppression of P. berghei schizont cultures (%)” value [1, 3] was 26.58% and the “antimalarial activity in words (P. berghei schizont cultures)” value ([1]; in vitro, 16 h) was “inactive”.

With `CC(C)[C@H](NC(=O)[C@@H](N)CCCCN)C(=O)N1CCC[C@H]1C(=O)N[C@@H](CCCN)C(=O)O` [Compound 7, Lys-Val-Pro-Orn] (H-KVP[Orn]-OH; N-terminus assumed) the pIC50 ([1]; 16 h) was under 3.70 and the “Chemosuppression of P. berghei schizont cultures (%)” value [1, 3] was 27.39%.

Work on `CC(C)[C@H](NC(=O)[C@@H](N)CCCCN)C(=O)N[C@@H](Cc1ccccc1)C(=O)N1CCC[C@H]1C(=O)O` [Compound 8, Lys-Val-Phe-Pro] (H-KVFP-OH) yielded a pIC50 [1, 4] of 4.29.

`CC(C)[C@H](NC(=O)[C@H](CCCN)NC(=O)[C@@H](N)Cc1ccccc1)C(=O)O` [Compound 9, Phe-Orn-Val] (H-Phe-[Orn]-Val-OH) gave a pIC50 ([1]; 16 h) of 3.92.

In the case of `COC(=O)N[C@H](C(=O)N[C@@H](Cc1ccccc1)[C@@H](O)CN(Cc1ccc(-c2ccccn2)cc1)NC(=O)[C@@H](NC(=O)OC)C(C)(C)C)C(C)(C)C` [atazanavir], the “inhibition of P. falciparum in vitro” value (P. falciparum) is given as “inhibit P. falciparum in vitro”.

For `CC(C)(C)NC(=O)[C@@H]1C[C@@H]2CCCC[C@@H]2CN1C[C@@H](O)[C@H](Cc1ccccc1)NC(=O)[C@H](CC(N)=O)NC(=O)c1ccc2ccccc2n1` [saquinavir], the “inhibition of P. falciparum in vitro” value (P. falciparum) is given as “inhibit P. falciparum in vitro”.

In the case of “Cbz-Phe-Arg-CH2F [peptidylfluoromethyl ketone]”, the “inhibition of trophozoite cysteine proteinase” value [2] is given as “very potent inhibitor”.

In the case of F[Orn]F[Orn] [Compound 4], the “Chemosuppression of P. berghei schizont cultures (%)” value [1, 3] was 85.94% and the pIC50 [1, 4] was 5.48.

In the case of HC-toxin I, the “MIC against P. falciparum” value (P. falciparum) is listed as 0.031 µg/mL.

In the case of apicidin, the “MIC against P. falciparum” value (P. falciparum) is given as 0.125 µg/mL and the “in vivo antimalarial activity against P. berghei” value (P. berghei) is given as “potent in vivo antimalarial agent”.

In the case of apicidin A, the “MIC against P. falciparum” value (P. falciparum) is given as 0.125 µg/mL.

In the case of hirsutellic A acid, the pIC50 (P. falciparum) is given as 5.10.

For morpholine urea (Mu)-Phe-HPh-CH2F, the “cured malarial infected mice” value (malarial infected mice) is given as 80%.

For pepstatin A, the pIC50 (P. falciparum) is listed as 5.12.
